By GI50 is commonly meant the concentration giving 50% growth inhibition. As a reminder, the TGI is the concentration giving total growth inhibition.

In PubChem BioAssay (NCI) one finds GI50 and TGI data, which are given here for 17 molecules.

Assay in all cases: DTP human tumour cell line panel, 48 h
Experiment [1] deals with LOX IMVI melanoma.
In experiment [2] the test system is MDA-MB-435.
Experiment [3] concerns OVCAR-3 ovarian.
Experiment [4] has as its system OVCAR-5 ovarian.
In experiment [5] the test system is RXF 393 renal.
For experiment [6], the system named is SF-295 CNS.
For experiment [7], the system named is SK-MEL-28 melanoma.
Experiment [8] concerns U251 CNS.
Experiment [9] concerns UACC-62 melanoma.
Experiment [10] relates to EKVX NSCLC.

Structures are written as SMILES.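 Where inhibition never reached the appropriate level, the endpoint shown equals the highest concentration tested. Otherwise, values were interpolated linearly from a five-concentration, 48-hour dose response in 96-well plates. GI50: concentration for 50% inhibition of growth. TGI denotes the concentration required for complete inhibition of growth.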

Turning to `CCN(CC)CCn1c(=N)n(CC(O)c2ccc(Cl)c(Cl)c2)c2ccccc21` (centres undefined), the GI50 is 6.14 µM in experiment [1]; 1.75 µM in experiment [2]; 11.5 µM in experiment [3]; 10.7 µM in experiment [4]; 2.8 µM in [5]; 8.87 µM in experiment [6]. Also, the GI50 in [7] is 2.05 µM; in [8] it was 2.82 µM; in [9], 1.94 µM. For the same molecule, the TGI in experiment [1] is 20.3 µM; in experiment [2], 3.49 µM; in experiment [3], 24 µM; in experiment [4] it was 22.8 µM; in experiment [5] it was 10.9 µM; in [6] it was 24.1 µM. For the same molecule, the TGI stood at 4.34 µM in experiment [7], 9.04 µM in experiment [8] and 3.89 µM in [9].

For `CC(C)Oc1cc(OCC(=O)O)cc(C(=O)N(CCC(N)=O)C(=O)Nc2ccc(C(=O)O)cc2OC(C)C)c1`, the GI50 in experiment [1], in experiment [2], in [3], in experiment [4], in experiment [5] and in experiment [6] was > 100 µM throughout. Also, the GI50 in experiment [7], in experiment [8] and in experiment [9] was > 100 µM each time. In addition, the TGI in experiment [1], in [2], in experiment [3], in experiment [4], in experiment [5] and in experiment [6] was > 100 µM throughout. The TGI in experiment [7], in experiment [8] and in [9] was > 100 µM throughout.

With `CC(C)(O)Cn1c(=O)c(Oc2ccc(F)cc2F)cc2cnc(NC3CCOCC3)nc21`, the GI50 in experiment [1], in [2], in [3], in [4], in experiment [5] and in experiment [6] was > 25 µM in each case. In addition, the GI50 in [7], in experiment [8] and in [9] was > 25 µM each time. Besides, the TGI in experiment [1], in [2], in experiment [3], in [4], in experiment [5] and in [6] was > 25 µM throughout. The TGI in [7], in [8] and in [9] was > 25 µM throughout.

For the molecule `COC(=O)C1=C(O)C(O)=C(C(=O)OC)CC1`, the TGI was > 100 µM in experiment [10]; > 100 µM in experiment [1]; > 100 µM in experiment [3]; > 100 µM in [4]; 35.1 µM in experiment [5]; > 100 µM in [6]. In addition, the TGI in experiment [7], in experiment [8] and in experiment [9] was > 100 µM in each case.

For `COc1ccc(NC(=O)CC/C(CC(=O)c2ccco2)=N/Nc2ccc([N+](=O)[O-])cc2[N+](=O)[O-])cc1`, the TGI in [10], in experiment [1], in [3], in experiment [4], in experiment [5] and in experiment [6] was > 100 µM in each case. Further, the TGI in [7], in experiment [8] and in experiment [9] was > 100 µM each time.

For the molecule `C=CCCc1cc(OC)ccc1CN(C)C(C)(C)CO`, the TGI in [10], in experiment [1], in experiment [3], in [4], in experiment [5] and in experiment [6] was > 100 µM throughout. Besides, the TGI in [7], in experiment [8] and in experiment [9] was > 100 µM in each case.

`COC1OC(OC)C2C(c3c(C)cc(C)cc3C)=NOC12` (centres undefined): the TGI in experiment [10], in experiment [1], in [3], in experiment [4], in experiment [5] and in experiment [6] was > 100 µM in each case. Further, the TGI in [7], in experiment [8] and in experiment [9] was > 100 µM in each case.

With `N#Cc1c([N+](=O)[O-])cc(C(F)(F)F)cc1[N+](=O)[O-]`, the TGI in experiment [10] came to 32.9 µM; in experiment [1], 6.87 µM; in experiment [3], 30.9 µM; in experiment [4] it was 32.5 µM; in experiment [5], 6.62 µM; in experiment [6], 10.3 µM. For the same molecule, the TGI in experiment [7] came out at 21.2 µM; in [8], 33.7 µM; in experiment [9], 12.2 µM.

In the case of `Cc1c2c(n3c(nc4ccccc43)c1C#N)SCC2`, the TGI in experiment [10], in experiment [1], in experiment [2], in [3], in experiment [4] and in [6] was > 10 µM throughout. The TGI in [7], in experiment [8] and in [9] was > 10 µM throughout.

On to `CCOC(=O)c1cc2c(n1Cc1cccc(OC)c1)-c1oncc1CC2`, for which the GI50 in experiment [10] is 9.1 µM; in [1], 0.794 µM; in experiment [3], 0.38 µM; in [4], 17.9 µM; in experiment [5], 1.72 µM; in experiment [6] it was 0.433 µM. Moreover, the GI50 in experiment [7] is 0.97 µM; in experiment [8], 0.909 µM; in experiment [9], 0.541 µM. The TGI in [10] is > 100 µM; in experiment [1], > 100 µM; in experiment [3], 2.66 µM; in [4], > 100 µM; in experiment [5] it was 35.9 µM; in experiment [6], 49.7 µM. Also, the TGI in experiment [7], in experiment [8] and in experiment [9] was > 100 µM in each case.

Regarding `C=C1C(=O)OC2C1C(OC(=O)/C(=C/C)COC(C)=O)CC1(CO1)C1C(OC(=O)/C(=C/C)CO)C=C(C)C21` (centres undefined), the TGI in [10] stood at 4.16 µM; in [1], 11.9 µM; in experiment [3], 12.2 µM; in [4] it was 25.9 µM; in experiment [5], 2.31 µM; in experiment [6] it was 20.8 µM. Moreover, the TGI in experiment [7] was 4.16 µM; in [8] it was 35.1 µM; in experiment [9] it was 3.01 µM.

For `CN(C)CCCn1cnc2ncccc2c1=O`, the TGI in [10], in experiment [1], in experiment [3], in experiment [4], in experiment [5] and in experiment [6] was > 100 µM in each case. The TGI in [7], in experiment [8] and in experiment [9] was > 100 µM in each case.

Take `C1=C[C@@H]2c3ccc4cnccc4c3NC[C@@H]2C1`: the TGI in experiment [10], in [2], in experiment [3], in [4], in [5] and in experiment [6] was > 100 µM each time. For the same molecule, the TGI in experiment [7], in experiment [8] and in experiment [9] was > 100 µM in each case.

For the molecule `Cc1cc2c(-c3nc4ccccc4[nH]3)c(O)c(O)cc2c(O)c1-c1c(C)cc2c(-c3nc4ccccc4[nH]3)c(O)c(O)cc2c1O`, the 50% growth inhibitory concentration (GI50) was 0.0315 µM in [10]; 0.0248 µM in experiment [2]; 0.0411 µM in [3]; 0.0852 µM in [4]; 0.0434 µM in experiment [5]; 0.0227 µM in [6]. Also, the GI50 is 0.0976 µM in [7] and 0.0174 µM in [8]. In addition, the concentration for total growth inhibition (TGI) is > 28.9 µM in experiment [10]; 18.3 µM in [2]; 15.1 µM in [3]; > 20.3 µM in [4]; 3.56 µM in experiment [5]; 1.58 µM in [6]. In [7], this molecule yielded a TGI of 15.8 µM.

As for `Cn1cc(-c2ccc3cc(-c4ccc(CC(=O)Nc5cc(C(C)(C)C)nn5C)cc4)cnc3c2)cn1`, the GI50 is 0.282 µM in [10]; 0.284 µM in [1]; 0.309 µM in experiment [2]; 0.336 µM in experiment [3]; 0.606 µM in experiment [4]; 0.307 µM in experiment [6]. The 50% growth inhibitory concentration (GI50) was 0.41 µM in experiment [7], 0.236 µM in [8] and 0.179 µM in [9]. The TGI in [10], in [1], in [2], in experiment [3], in experiment [4] and in experiment [6] was > 100 µM in each case. Also, the TGI in [7], in [8] and in experiment [9] was > 100 µM in each case.

In the case of `CCOC(=O)c1cnc2ccc(Cl)cc2c1NCCCN(C)C`, the GI50 in experiment [1] is 14.1 µM; in [2], 17.9 µM; in [3] it was 28.1 µM; in [4], 22.2 µM; in experiment [6] it was 22.9 µM; in experiment [7], 22.9 µM. Also, in [9], the GI50 was 16.4 µM. The TGI in [1] was 34.1 µM; in [2] it was 43.5 µM; in experiment [3], 97.7 µM; in experiment [4], > 100 µM; in [6], > 100 µM; in [7] it was 56.3 µM. This molecule also showed a TGI in [9] of 32.8 µM.

Regarding `CCS[C@H]1NC(=O)C1[C@H](C)O[Si](C)(C)C(C)(C)C` (some centres undefined), the TGI in experiment [10], in [1], in experiment [3], in experiment [4], in experiment [5] and in experiment [6] was > 100 µM in each case. The TGI in [7], in experiment [8] and in experiment [9] was > 100 µM in each case.
